Data as given in US7547705B2, “Substituted 8′-pyri(MI)dinyl-dihydrospiro-[cycloalkylamine]-pyrimido[1,2-a]pyrimidin-6-one derivatives” (Sanofi-Aventis, priority 2003, dated 2009).

Target: GSK3β (Homo sapiens, UniProt P49841)
Experiment: Inhibitory activity against GSK3β (33P-ATP phosphorylation of prephosphorylated GS1 peptide, two protocols)
Type: biochemical
Conditions: GS1 peptide / 33P-ATP filter assay; which of the two protocols was used is not stated
Experimental: Inhibitory activity of the medicament of the present invention against GSK3β: Two different protocols can be used. In a first protocol: 7.5 μM of prephosphorylated GS1 peptide and 10 μM ATP (containing 300,000 cpm of 33P-ATP) were incubated in 25 mM Tris-HCl, pH 7.5, 0.6 mM DTT 6 mM MgCl2, 0.6 mM EGTA, 0.05 mg/ml BSA buffer for 1 hour at room temperature in the presence of GSK3beta (total reaction volume: 100 microliters). In a second protocol: 4.1 μM of prephosphorylated GSI peptide and 42 μM ATP (containing 260,000 cpm 33P-ATP) were incubated in 80 mM Mes-NaOH, pH 6.5, 1 mM Mg acetate, 0.5 mM EGTA, 5 mM 2-mercaptoethanol, 0.02% Tween 20,10% glycerol buffer for 2 hours at room temperature in the presence of GSK3beta. Inhibitors were solubilised in DMSO (final solvent concentration in the reaction medium, 1%). The reaction was stopped with 100 microliters of a solution made of 25 g polyphosphoric acid (85% P2O5), 126 ml 85% H3PO4, H2O to 500 ml and then diluted to 1:100 before use. An aliquot of the reaction mixture was then transferred to Whatman P81 cation exchange filters and rinsed with the solution described above. Incorporated 33P radioactivity was determined by liquid scintillation spectrometry. The phosphorylated GS-1 peptide had the following sequence: NH2-[…](P)EDEE-COOH. […]

GSK3β, sequence (P49841 whole entry, species assumed): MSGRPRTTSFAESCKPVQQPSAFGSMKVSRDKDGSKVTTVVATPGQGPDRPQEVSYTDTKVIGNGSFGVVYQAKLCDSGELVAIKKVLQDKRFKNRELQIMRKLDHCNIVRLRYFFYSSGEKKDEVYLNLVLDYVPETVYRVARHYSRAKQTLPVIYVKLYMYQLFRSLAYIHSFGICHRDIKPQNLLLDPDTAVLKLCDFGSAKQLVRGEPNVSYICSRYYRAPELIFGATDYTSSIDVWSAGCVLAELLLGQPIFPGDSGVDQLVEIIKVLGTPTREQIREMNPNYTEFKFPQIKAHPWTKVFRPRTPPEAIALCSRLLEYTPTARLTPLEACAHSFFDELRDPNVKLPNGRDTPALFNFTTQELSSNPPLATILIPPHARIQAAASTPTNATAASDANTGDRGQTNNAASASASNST

IC50 | Structure (SMILES)
7 nM | CN1CCC2(CC1)CCn1c(nc(-c3ccncc3)cc1=O)N2CC(=O)c1ccccc1 [compound No. 4 of table 1, 1-Methyl-1′-(2-oxo-2-phenylethyl)-8′-(pyridin-4-yl)-3′,4′-dihydrospiro[piperidine-4,2′-pyrimido[1,2-a]pyrimidin]-6′(1′H)-one]
6 nM | CN1CCC2(CCn3c(nc(-c4ccncc4)cc3=O)N2CC(=O)c2ccccc2)C1 (centres unmarked) [compound No. 4 of table 2, 1′-Methyl-1-(2-oxo-2-phenylethyl)-8-(pyridin-4-yl)-3,4-dihydrospiro (pyrimido[1,2-a]pyrimidine-2,3′-pyrrolidin]-6(1H)-one]
